Among the data in ChEMBL document CHEMBL1125974, “Synthesis of (+/)1-Aza-carbocyclic-pyrimidine-2,3-dideoxynucleoside analogues as potential anti-HIV agents” (Bioorg Med Chem Lett, 1991) are Activity values, retold here.

Each structure is given as a SMILES string.

The subject of the test is MT4. The test can be described thus: Tested for inhibitory activity against HIV in whole cell assay (MT-4, RF strain of HIV-1) at a 100 ug/ ml); Inactive and Not toxic. Conditions: Homo sapiens. The test is classed as functional, cell-based.
With `Nc1ccn(N2CCC(CO)C2)c(=O)n1` (stereo not drawn), the Activity entry is “Non-toxic”.
With `Cc1cn(N2CCC(CO)C2)c(=O)[nH]c1=O` (stereo not drawn), the Activity entry was “Non-toxic”.
Under `O=c1ccn(N2CCC(CO)C2)c(=O)[nH]1` (stereo not drawn) stands “Non-toxic”.
